Experimental data as given in US20250177291A1, “HYPOTONIC GEL-FORMING FORMULATIONS WITH ENHANCED RHEOLOGICAL PROPERTIES” (The Johns Hopkins University, priority 2021, published 2025).

Assay: Rheology: max tack force and adhesion of 16% F127 gels with additives
Type: physicochemical
Conditions: 0.2-1% glycerin added to 16% w/v F127, 37° C., vs no additive
Procedure: An Anton Paar cone and plate rheometer (model MCR 302) with PP25 probe were used to measure the max tack force and the adhesion. The probe was placed in contact with the sample, and then moved at a controlled rate vertically away from the sample to measure the normal force. The peak force on the curve is considered the max tack force, while the adhesion is the area under the force curve. Samples (200 μL) were transferred to the rheometer sample holder using a Drummond Wiretrol 200 μL wire plunger pipette. The samples were equilibrated between the probe and sample holder with a 1 mm gap for 60 s at the specified temperature. A total of 100 points were measured at 60 s intervals with ramp linear mode (initial was set as −0.005 mm/s and the final was set as −0.5 mm/s). If not specified, n=3-6 per each sample group were measured and each sample were prepared individually. The final data was exported from the Antron Parr RheoCompass. The max tack force and the adhesion were calculated with GraphPad Prism 9. For the temperature ramp viscosity experiment, the loading gap was set to 0.3 mm. […] The raw data with temperature (° C.) and viscosity (mPa*s) measurements were exported from the Anton Parr RheoCompass software and analyzed/plotted with GraphPad Prism 9. […]

adhesion of the F127 gels: no measurable effect | max tack force of the F127 gels: no measurable effect
SMILES: OCC(O)CO [glycerin]
